Biological target: T1, CDK1/cyclin A2 (Homo sapiens, UniProt P06493)
T1 construct: purchased Thermo Fisher Scientific (Life Technologies) SelectScreen
Experiment: SelectScreen LanthaScreen
Format: binding
Settings: 1 µM
How it was run: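 Percent values come from Thermo SelectScreen profiling of NU5455, combining activity and binding assays. CSF1R was run in Z'LYTE format at Km app ATP, and CAMK1 in Adapta format with ATP listed at 10.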

T1 sequence (P06493 whole entry): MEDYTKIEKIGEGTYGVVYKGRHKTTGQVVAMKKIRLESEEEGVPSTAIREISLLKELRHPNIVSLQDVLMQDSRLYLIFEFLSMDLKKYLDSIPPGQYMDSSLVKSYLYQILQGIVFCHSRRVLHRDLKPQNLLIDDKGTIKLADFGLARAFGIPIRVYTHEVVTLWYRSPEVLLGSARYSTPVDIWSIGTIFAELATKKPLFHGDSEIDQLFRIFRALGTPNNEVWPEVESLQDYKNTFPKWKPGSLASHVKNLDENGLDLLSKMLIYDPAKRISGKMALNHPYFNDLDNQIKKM
T1 sequence (P20248 whole entry partner): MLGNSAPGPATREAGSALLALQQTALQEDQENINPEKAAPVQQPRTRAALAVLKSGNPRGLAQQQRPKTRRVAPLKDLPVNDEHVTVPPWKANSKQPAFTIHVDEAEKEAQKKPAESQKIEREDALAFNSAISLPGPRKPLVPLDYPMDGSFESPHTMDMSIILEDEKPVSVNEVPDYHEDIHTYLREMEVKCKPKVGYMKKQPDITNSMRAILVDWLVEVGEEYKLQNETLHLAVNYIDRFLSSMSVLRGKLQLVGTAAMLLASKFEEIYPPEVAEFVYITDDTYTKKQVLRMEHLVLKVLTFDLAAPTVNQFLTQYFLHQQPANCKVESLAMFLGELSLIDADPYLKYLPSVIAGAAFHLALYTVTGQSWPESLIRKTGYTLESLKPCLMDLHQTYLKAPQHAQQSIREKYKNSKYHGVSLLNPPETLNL

Q: Which “% displacement” value does the source give for `CN(C(=O)CN1CCOCC1)c1ccc2sc3c(-c4cccc5c(=O)cc(N6CC7CCC(C6)O7)oc45)cccc3c2c1` [NU5455] here?
A: The value was 3.3%.
